Assay results from PubChem BioAssay (NCI).
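Following 48 hours of exposure in 96-well plates, responses at five concentrations were used to interpolate endpoints linearly. At the GI50, growth is halved. The concentration for full growth arrest is given as TGI.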

Assays:
Assay in all cases: NCI anticancer screen, dose series, 48 h
UO-31 renal = system: UO-31 renal
KM12 colon = system: KM12 colon
SF-268 CNS = system: SF-268 CNS
COLO 205 colon = system: COLO 205 colon
HOP-92 NSCLC = system: HOP-92 NSCLC
UACC-62 melanoma = system: UACC-62 melanoma
A549 NSCLC = system: A549 NSCLC
HCC-2998 colon = system: HCC-2998 colon
HCT-116 colon = system: HCT-116 colon
MDA-MB-435 = system: MDA-MB-435
ACHN renal = system: ACHN renal
MDA-MB-231 breast = system: MDA-MB-231 breast
BT-549 breast = system: BT-549 breast
MCF7 breast = system: MCF7 breast
A498 renal = system: A498 renal
M14 melanoma = system: M14 melanoma
DU-145 prostate = system: DU-145 prostate
U251 CNS = system: U251 CNS
HT29 colon = system: HT29 colon
MALME-3M melanoma = system: MALME-3M melanoma
MDA-MB-468 breast = system: MDA-MB-468 breast
SK-MEL-28 melanoma = system: SK-MEL-28 melanoma
PC-3 prostate = system: PC-3 prostate
NCI-H522 lung = system: NCI-H522 lung
SN12C renal = system: SN12C renal
SK-MEL-2 melanoma = system: SK-MEL-2 melanoma
SR leukemia = system: SR leukemia
HOP-62 NSCLC = system: HOP-62 NSCLC
HCT-15 colon = system: HCT-15 colon
NCI/ADR-RES ovarian = system: NCI/ADR-RES ovarian
LOX IMVI melanoma = system: LOX IMVI melanoma
NCI-H23 lung = system: NCI-H23 lung
SF-295 CNS = system: SF-295 CNS
MOLT-4 leukemia = system: MOLT-4 leukemia
TK-10 renal = system: TK-10 renal
NCI-H460 lung = system: NCI-H460 lung
EKVX NSCLC = system: EKVX NSCLC
HS 578T breast = system: HS 578T breast
SK-MEL-5 melanoma = system: SK-MEL-5 melanoma
OVCAR-5 ovarian = system: OVCAR-5 ovarian
K-562 leukemia = system: K-562 leukemia
HL-60(TB) leukemia = system: HL-60(TB) leukemia
CCRF-CEM leukemia = system: CCRF-CEM leukemia
NCI-H226 lung = system: NCI-H226 lung
RPMI-8226 leukemia = system: RPMI-8226 leukemia
IGROV1 ovarian = system: IGROV1 ovarian
OVCAR-8 ovarian = system: OVCAR-8 ovarian
RXF 393 renal = system: RXF 393 renal
SF-539 CNS = system: SF-539 CNS
786-0 renal = system: 786-0 renal
T-47D breast = system: T-47D breast
OVCAR-4 ovarian = system: OVCAR-4 ovarian
CAKI-1 renal = system: CAKI-1 renal
UACC-257 melanoma = system: UACC-257 melanoma
SK-OV-3 ovarian = system: SK-OV-3 ovarian
SNB-19 CNS = system: SNB-19 CNS
SW-620 colon = system: SW-620 colon
SNB-75 CNS = system: SNB-75 CNS

## C=C(c1ccc(OC)c(N)c1)c1cc(C)nc2ccccc12
UO-31 renal
  GI50: < 10 nM
  TGI: 64600 nM
KM12 colon
  GI50: < 10 nM
  TGI: 11500 nM
SF-268 CNS
  GI50: < 10 nM
  TGI: 37400 nM
COLO 205 colon
  GI50: < 10 nM
  TGI: < 10 nM
HOP-92 NSCLC
  GI50: 180 nM
  TGI: 43000 nM
UACC-62 melanoma
  GI50: < 10 nM
  TGI: 22400 nM
A549 NSCLC
  GI50: < 10 nM
  TGI: > 100000 nM
HCC-2998 colon
  GI50: < 10 nM
  TGI: 466 nM
HCT-116 colon
  GI50: < 10 nM
  TGI: > 100000 nM
MDA-MB-435
  GI50: < 10 nM
  TGI: 118 nM
ACHN renal
  GI50: < 10 nM
  TGI: 61900 nM
MDA-MB-231 breast
  GI50: < 10 nM
  TGI: < 10 nM
BT-549 breast
  GI50: < 10 nM
MCF7 breast
  GI50: < 10 nM
  TGI: > 37100 nM
A498 renal
  GI50: 36800 nM
  TGI: > 100000 nM
M14 melanoma
  GI50: < 10 nM
  TGI: 15200 nM
DU-145 prostate
  GI50: < 10 nM
  TGI: > 100000 nM
U251 CNS
  GI50: < 10 nM
  TGI: > 100000 nM
HT29 colon
  GI50: < 10 nM
  TGI: < 10 nM
MALME-3M melanoma
  GI50: < 10 nM
  TGI: 31600 nM
MDA-MB-468 breast
  GI50: < 10 nM
  TGI: 76300 nM
SK-MEL-28 melanoma
  GI50: < 10 nM
  TGI: 98200 nM
PC-3 prostate
  GI50: < 10 nM
  TGI: > 100000 nM
NCI-H522 lung
  GI50: < 10 nM
  TGI: < 10 nM
SN12C renal
  GI50: < 10 nM
  TGI: > 44900 nM
SK-MEL-2 melanoma
  GI50: < 10 nM
  TGI: < 10 nM
SR leukemia
  GI50: < 10 nM
  TGI: 34600 nM
HOP-62 NSCLC
  GI50: < 10 nM
  TGI: > 100000 nM
HCT-15 colon
  GI50: < 10 nM
NCI/ADR-RES ovarian
  GI50: < 10 nM
  TGI: < 10 nM
LOX IMVI melanoma
  GI50: < 10 nM
  TGI: 27400 nM
NCI-H23 lung
  GI50: < 10 nM
  TGI: 36100 nM
SF-295 CNS
  GI50: < 10 nM
MOLT-4 leukemia
  GI50: < 10 nM
  TGI: 26600 nM
TK-10 renal
  GI50: 18700 nM
  TGI: > 100000 nM
NCI-H460 lung
  GI50: < 10 nM
  TGI: > 32000 nM
EKVX NSCLC
  GI50: < 10 nM
  TGI: > 51600 nM
HS 578T breast
  GI50: < 10 nM
  TGI: > 100000 nM
SK-MEL-5 melanoma
  GI50: < 10 nM
  TGI: < 10 nM
OVCAR-5 ovarian
  GI50: < 10 nM
  TGI: > 100000 nM
K-562 leukemia
  GI50: < 10 nM
  TGI: > 93000 nM
HL-60(TB) leukemia
  GI50: < 10 nM
  TGI: < 10 nM
CCRF-CEM leukemia
  GI50: < 10 nM
NCI-H226 lung
  GI50: < 11.5 nM
  TGI: > 100000 nM
RPMI-8226 leukemia
  GI50: < 10 nM
  TGI: 21300 nM
IGROV1 ovarian
  GI50: < 10 nM
  TGI: > 100000 nM
OVCAR-8 ovarian
  GI50: < 10 nM
RXF 393 renal
  GI50: < 10 nM
  TGI: 79000 nM
SF-539 CNS
  GI50: < 10 nM
  TGI: < 10 nM
786-0 renal
  GI50: < 10 nM
  TGI: > 100000 nM
T-47D breast
  GI50: 12600 nM
  TGI: > 100000 nM
OVCAR-4 ovarian
  GI50: 7410 nM
  TGI: > 100000 nM
CAKI-1 renal
  GI50: < 10 nM
  TGI: > 96200 nM
UACC-257 melanoma
  GI50: 3980 nM
  TGI: 75000 nM
SK-OV-3 ovarian
  GI50: < 10 nM
SNB-19 CNS
  GI50: < 10 nM
  TGI: > 100000 nM
SW-620 colon
  GI50: < 10 nM
  TGI: > 100000 nM
SNB-75 CNS
  GI50: < 10 nM
  TGI: 83700 nM

## CCN1CCN(CC(=O)N2c3cccc4cccc(c34)N(C(=O)CN3CCN(CC)CC3)C2c2cn(-c3ccccc3)nc2-c2cccc([N+](=O)[O-])c2)CC1
MDA-MB-468 breast
  GI50: 1260 nM
  TGI: 2760 nM
